Tests used:
[1] = system: mouse T cell hybridomas FF13; test: IL-2 secretion by recognition of glycolipids by a murine NKT cell line (FF13 hybridoma, THP1 hCD1d as APC, ELISA); assay type: cell-based; details: at 10 micromolar; CD1d-transfected THP-1 cells exposed two hours to test compound; IL-2 in medium determined 48 hrs later
Procedure: As a measure of T cell activation, IL2 release into the culture medium was determined after 48 hours culture by an ELISA assay. […] The x-axis is amount of glycolipid in μg/ml.
The biological evaluation of compounds of the invention uses mouse Vα14i NKT cells immortalized by cell fusion to give hybridomas FF13 through the presentation by APC (THP1). As a measure of T cell activation, IL2 release into the culture medium was determined after 48 hours culture by an ELISA assay. […]
100 μl FF13 in complete medium were added (10×10^4 per well) and after 48 hours the tests were evaluated for IL2 production.
IL2 concentration is evaluated by ELISA using a primary monoclonal Anti-mouse IL-2 Antibody (R&D System), a biotinylated detection anti-mouse IL-2 Antibody (R&D System) and as color developer SIGMA FAST OPD. […]
FIG. 2 depicts the IL2 levels released by cells that had been treated with compounds 13-16, compared to the effect of alpha-GalCer itself, in an NKT cell hybridoma test. The a-GalCer specific NKT hybridoma cells were added to CD1d-transfected THP-1 cells that had been exposed for two hours to various doses of the test compound (about 0.1 to about 10 μg/mL), and IL-2 levels in the medium were determined 48 hrs later.

[2] = Solubility in water; assay type: physicochemical
Procedure: In some embodiments, the compounds of the invention have a solubility of at least about 0.5 mg/mL, 1 mg/mL, 2 mg/mL, 5 mg/mL, 7.5 mg/mL, 10 mg/mL, 12.5 mg/mL, 15 mg/mL, 17.5 mg/mL, 20 mg/mL, 25 mg/mL, 30 mg/mL, 40 mg/mL, 50 mg/mL, 75 mg/mL, 100 mg/mL, 150 mg/mL or 200 mg/mL in an aqueous solution.

| solubility in water [2] | SMILES | IL2 levels released, compared to the effect of alpha-GalCer [1] |
| --- | --- | --- |
|  | CCCCCCCCCCCCCCCCCCCCCCCCCC(=O)N[C@@H](COC1OC(CO)C(O)C(O)C1O)[C@H](O)[C@H](O)COCCOCCCC (stereo partly drawn) [Compound 13, (2S,3S,4R)-5-O-(2-butoxyetil)-2-(N-exacosanoylamino)-1-O-(α-D-galactopyranosyl)-1,3,4,5-pentanetetraol] | as effective as a-GalCer |
| soluble in water | CCCCCCCCCCCCCCCCCCCCCCCCCC(=O)N[C@@H](CO[C@H]1OC(CO)[C@H](O)C(O)C1O)[C@H](O)[C@H](O)COCCCc1ccccc1 (stereo partly drawn) [Compound 15] |  |
|  | CCCCCCCCCCCCCCCCCCCCCCCCCC(=O)N[C@@H](CO[C@H]1OC(CO)[C@H](O)C(O)C1O)[C@H](O)[C@H](O)COCCCc1ccccc1 (stereo partly drawn) [Compound 16] | as effective as a-GalCer |

Reference: patent US8697659B2, “Analogues of glycolipids useful as immunoadjuvants” (Luigi Panza, priority 2007, dated 2014)
